Measurements from patent US4743616A, “Novel biologically active compound having anti-prolyl endopeptidase activity” (Suntory Limited, priority 1984, dated 1988).

What was measured:
prolyl endopeptidase = assay: Measurement of anti-prolyl endopeptidase activity; format: biochemical; conditions: substrate Z-glycyl-proline-β-naphthylamide, phosphate buffer pH 7.0, absorbance at 410 nm
Protocol: The method of Yoshimoto and Tsuru (T. Yoshimoto and D. Tsuru, Agr. Biol. Chem. 42, 2417, 1978) was used to measure the anti-prolyl endopeptidase activities of several compounds of the present invention. A mixture of 0.0025M Z-glycyl-proline-β-naphthylamide (0.25 ml), 0.1M phosphate buffer (pH, 7.0; 0.99 ml) and a solution of a particular anti-prolyl endopeptidase compound (0.01 ml) was incubated in a test tube at 37° C. for 3 minutes. Thereafter, 0.1 ml of a solution of prolyl endopeptidase (0.2 U/ml) was added and the mixture was heated at 35° C. for 10 minutes. After the reaction, 2.0 ml of Triton X-100 in 1M acetate buffer (pH, 4.0 ) was added to the reaction mixture until the final concentration of the surfactant was 10%. The mixture was left at room temperature for 15 minutes and the absorance (a) at 410 nm was measured.
A sample for blind test was prepared by using the buffer instead of the anti-prolyl endopeptidase compound and its absorbance (b) was also measured. The percent inhibition of prolyl endopeptidase was calculated by the formula: ((b-a)/b)×100, and the amount of a specific compound to achieve 50% inhibition (IC50) was determined.

[1] = tested on: experimental amnesia caused in rats by scopolamine; assay: Preventive effect against experimental amnesia caused in rats by scopolamine (intraperitoneal administration); format: in vivo, Wister male rats; conditions: for No. of amnesic rats/No. of rats tested / Percentage amnesia: scopolamine 3 mg/kg i.p., assessed 24 and 48 hours after scopolamine
Protocol: (§1) Several of the anti-prolyl endopeptidase compounds of the present invention were checked for their ability to prevent the inhibition of long-term memory fixation by scopolamine. Solutions of physiological saline that contained selected compounds of the present inventions in varying amounts (20 mg, 2 mg, 0.2 mg and 0.02 mg/kg) were administered intraperitoneally once a day to Wister male rats (100-120 g). One hour after the administration, electric shocks were applied to the rats so that they would acquire passive avoidance learning. Immediately thereafter, scopolamine was administered intraperitoneally to each rat in an amount of 3 mg per kg of body weight.
(§2) The result of the test was assessed both 24 hours and 48 hours after the administration of scopolamine. The number of amnesic rats and that of sound rats were counted for each of the control group (rats which were not administered the test compounds but administered intraperitoneally only scopolamine and physiological saline) and the treated group (rats which were administered both the test compound and scopolamine).

[2] = Acute toxicity test in mice; conditions: mouse, in vivo, ip; single i.p. administration in DMSO/physiological saline, five mice per group, observed at 24 and 48 hours; read-out: Average dose (mg/kg) at which the group remained sound and showed no sign of intoxication
Protocol: The compounds of the present invention were checked for their acute toxicity in CDF-1 strain male mice (body weight: 27.2-30.1 g) purchased from Awazu Laboratory Animals Co., Ltd.
Test samples were prepared by dissolving the respective compounds in DMSO, and mixing with an equal amount of physiological saline. A portion (0.1 ml) of the so conditioned test sample was administered intraperitoneally to each of the mice used. Each of the tested groups consisted of five mice. At 24 and 48 hours of the administration, the mice were observed.

[3] = tested on: experimental amnesia caused in rats by scopolamine; assay: Preventive effect against experimental amnesia caused in rats by scopolamine (oral administration); format: in vivo; conditions: for No. of amnesic rats/No. of rats tested / Percentage amnesia: scopolamine 3 mg/kg i.p.
Protocol: as §1, §2
Varying amounts (1, 5, 25 and 100 mg/kg) of the compound were administered orally to each of the rats and tested for its anti-amnesic effects by the same procedures as used in Example 9.

O=CC1CCCN1C(=O)Cc1ccccc1 (stereo not shown) [Compound No. 1]
IC50 (μg/test tube) (prolyl endopeptidase): 0.8 μg/test tube
No. of amnesic rats/No. of rats tested ([1]; 0.2 mg/kg i.p.): 7/10
Percentage amnesia ([1]; 0.2 mg/kg i.p.): 70%
No. of amnesic rats/No. of rats tested ([1]; 2 mg/kg i.p.): 3/10
Percentage amnesia ([1]; 2 mg/kg i.p.): 30%
NOAEL at 48 h [2]: 535 mg/kg

COC(=O)[C@@H]1CCCN1C(=O)Cc1ccccc1 [Compound No. 2, N-phenylacetyl-proline methyl ester]
IC50 (μg/test tube) (prolyl endopeptidase): 200 μg/test tube
No. of amnesic rats/No. of rats tested ([1]; 20 mg/kg i.p.): 7/10
Percentage amnesia ([1]; 20 mg/kg i.p.): 70%
NOAEL at 48 h [2]: 535 mg/kg

O=CC1CCCN1C(=O)CCc1ccccc1 (stereo not shown) [Compound No. 3, N-(3-phenylpropionyl)-prolinal]
IC50 (μg/test tube) (prolyl endopeptidase): 0.018 μg/test tube
No. of amnesic rats/No. of rats tested ([1]; 0.02 mg/kg i.p.): 7/15
Percentage amnesia ([1]; 0.02 mg/kg i.p.): 47%
No. of amnesic rats/No. of rats tested ([1]; 0.2 mg/kg i.p.): 4/15
Percentage amnesia ([1]; 0.2 mg/kg i.p.): 27%
No. of amnesic rats/No. of rats tested ([1]; 2 mg/kg i.p.): 4/15
Percentage amnesia ([1]; 2 mg/kg i.p.): 27%
NOAEL at 48 h [2]: 543 mg/kg

COC(=O)[C@@H]1CCCN1C(=O)CCc1ccccc1 [Compound No. 4, N-(3-phenylpropionyl)-proline methyl ester]
IC50 (μg/test tube) (prolyl endopeptidase): 60 μg/test tube
No. of amnesic rats/No. of rats tested ([1]; 2 mg/kg i.p.): 8/10
Percentage amnesia ([1]; 2 mg/kg i.p.): 80%
No. of amnesic rats/No. of rats tested ([1]; 20 mg/kg i.p.): 4/10
Percentage amnesia ([1]; 20 mg/kg i.p.): 40%
NOAEL at 48 h [2]: 542 mg/kg

O=CC1CCCN1C(=O)CCCc1ccccc1 (stereo not shown) [Compound No. 5]
IC50 (μg/test tube) (prolyl endopeptidase): 0.006 μg/test tube
No. of amnesic rats/No. of rats tested ([1]; 0.02 mg/kg i.p.): 4/15
Percentage amnesia ([1]; 0.02 mg/kg i.p.): 27%
No. of amnesic rats/No. of rats tested ([1]; 0.2 mg/kg i.p.): 2/15
Percentage amnesia ([1]; 0.2 mg/kg i.p.): 13%
No. of amnesic rats/No. of rats tested ([1]; 2 mg/kg i.p.): 3/15
Percentage amnesia ([1]; 2 mg/kg i.p.): 20%
effect in preventing amnesia (in words) ([1]; i.p. administration, Example 9): particularly effective in preventing amnesia
No. of amnesic rats/No. of rats tested ([3]; 1 mg/kg p.o.): 4/10
Percentage amnesia ([3]; 1 mg/kg p.o.): 40%
No. of amnesic rats/No. of rats tested ([3]; 5 mg/kg p.o.): 1/10
Percentage amnesia ([3]; 5 mg/kg p.o.): 10%
No. of amnesic rats/No. of rats tested ([3]; 25 mg/kg p.o.): 3/10
Percentage amnesia ([3]; 25 mg/kg p.o.): 30%
No. of amnesic rats/No. of rats tested ([3]; 100 mg/kg p.o.): 8/10
Percentage amnesia ([3]; 100 mg/kg p.o.): 80%
oral amount giving the strongest anti-amnesic action ([3]; of 1, 5, 25 and 100 mg/kg administered orally to rats): 5 mg/kg
NOAEL at 48 h [2]: 534 mg/kg

COC(=O)C1CCCN1C(=O)CCCc1ccccc1 (stereo not shown) [Compound No. 6, N-(4-phenyl-n-butyryl)-proline methyl ester]
IC50 (μg/test tube) (prolyl endopeptidase): 25 μg/test tube
No. of amnesic rats/No. of rats tested ([1]; 0.2 mg/kg i.p.): 5/10
Percentage amnesia ([1]; 0.2 mg/kg i.p.): 50%
No. of amnesic rats/No. of rats tested ([1]; 2 mg/kg i.p.): 3/10
Percentage amnesia ([1]; 2 mg/kg i.p.): 30%
NOAEL at 48 h [2]: 536 mg/kg

O=CC1CCCN1C(=O)CCCCCc1ccccc1 (stereo not shown) [Sample prepared in Example 7, N-(6-phenyl-n-caproyl)-prolinal]
IC50 (μg/test tube) (prolyl endopeptidase): 0.35 μg/test tube
